The record followed here is PubChem BioAssay (NCI).

Where “and” joins values, the source holds several entries; their conditions need not be identical. Equal values may be shown once.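 Exposure lasted 48 hours, with cells grown in 96-well plates and compounds tested at five concentrations. The concentration for 50% growth inhibition is given as GI50. TGI marks complete inhibition of growth.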 Calls of active or inactive are those of the source. No stated cut-off is given here; in the data, active means GI50 below about 0.43 µM; inactive means the rest.

Common to all, as to assay: NCI tumour cell line growth inhibition, 48 h
Experiment [1] deals with RXF-631 renal.
The test system of experiment [2] is MDA-N.
Experiment [3] relates to P388 leukemia.
Experiment [4] deals with P388/ADR leukemia.
In experiment [5] the test system is SN12K1 renal.

Regarding `CN1C(=O)C2C(C1=O)C1(O)c3ccccc3C2(N)c2ccccc21` (stereo not drawn), the TGI in experiment [1] is more than 100 µM.

`CN(C)c1ccc(/C=c2\sc3nc4ccccc4n3c2=O)cc1` yielded a TGI in experiment [1] of more than 100 µM. In turn, `COc1ccc(C2ON(c3cccc(C)n3)CC=C2C)cc1` (stereo not drawn) showed a TGI in experiment [1] of more than 100 µM. Consider `NC(N)=NS(=O)(=O)c1ccc(NCCc2c3ccccc3nc3ccccc23)cc1`, for which the TGI in experiment [1] was more than 100 µM. Same read-out and setting: the same measure for `CCN(CC)c1ccc(N=Nc2ccc(-c3nc4ccc[n+](C)c4o3)cc2)cc1`: more than 100 µM. In the case of `NCCCNCCCCNC(=O)C(O)NC(=O)CCCCCCN=C(N)N` (stereo not drawn), the GI50 in experiment [2] is more than 750 µM. For the same molecule, the TGI was more than 5000 µM in experiment [2], 511 µM in experiment [3], 750 µM in experiment [4] and 750 µM in experiment [5].

On to `COc1ccc(OCC(=O)O)c(C(=O)CCC(=O)O)c1`, for which, in experiment [1], the TGI is more than 100 µM. In experiment [1], `Cc1cc2c(C)nn(Cc3ccc(Cl)cc3)c2c(C#N)c1C` returned a TGI of more than 100 µM. On to `CCCCCCCc1cc2c3c(nc4ccccc42)C(=O)c2cccnc2-c3n1`, for which, in experiment [2], the GI50 was 4.44 µM and the TGI was found to be 9.12 µM.

In experiment [1], `CC1OC(n2cc(F)c(=O)[nH]c2=O)C=CC1=O` (stereo not drawn) displayed a TGI of more than 100 µM. In experiment [2], `CSc1nc(SC)c2c(CO)c(Br)n(Cc3ccccc3)c2n1` gave a TGI of more than 100 µM. Consider `COC(=O)/C=C/c1cc2c(cc1-c1c(C(=O)O)cc(OC)c(OC)c1OC)OCO2`, for which the TGI in experiment [2] was more than 10 µM. In experiment [1], `O=Cc1c(O)c(C(=O)Nc2ccc3[nH]c(=O)[nH]c3c2)cc2ccccc12` showed a TGI of more than 100 µM.

`O=C1c2ccccc2S(=O)(=O)c2cc(-c3nn[nH]n3)ccc21` displayed a TGI in experiment [2] of more than 100 µM.

For `COC(C)(C)C/C=C/C(C)=C/C=C/C(C)=C\C=C\C(C)=C\C=C\C=C(C)\C=C\C=C(C)\C=C\C=C(C)\C=C\CC(C)(C)OC`, the result in experiment [1] was inactive. Consider `S=P(N1CC1)(N1CC1)N1CC1`, for which the GI50 in experiment [2] was 257 µM. For the same molecule, the TGI was 426 µM and 671 µM in experiment [2]; 328 µM in experiment [3]; 351 µM in experiment [4]; 373 µM in experiment [5].

Regarding `CN(C)CC/[N+]([O-])=C(/c1ccccc1)C12CC3CC(CC(C3)C1)C2`, in experiment [1], the TGI was 32.8 µM. In experiment [2], `O=c1c(O)c(-c2cc(O)c(O)c(O)c2)oc2cc(O)cc(O)c12` gave a TGI of 24.5 µM. For the molecule `O=c1c2cc(Cl)ccc2sc2cccc(Cl)c12`, in experiment [1], the TGI is more than 100 µM.

In experiment [1], `Cc1cccc(C)c1NC(=O)C(=O)Nn1c(NN)nc2ccccc2c1=O` yielded a TGI of more than 100 µM. For the molecule `O=C(O)C1CC(O)CN1` (stereo not drawn), in experiment [2], the TGI was more than 100 µM. On to `COc1cc2c(cc1OC)/C(=C\c1ccccc1N)C(=O)OC2`, for which the TGI in experiment [1] was 23.5 µM.

Consider `CC(=O)OCC1OC(n2c(-c3ccc(C)cc3)cc(-c3ccccc3)c(C#N)c2=O)C(OC(C)=O)C(OC(C)=O)C1OC(C)=O` (stereo not drawn), for which, in experiment [1], the TGI is more than 100 µM. `Cc1cc(C)cc(NC(N)=S)c1` yielded a TGI in experiment [1] of more than 100 µM. In the case of `COc1cccc(/C=N/C(/N=C/c2cccc(OC)c2O)c2cccc(OC)c2O)c1O`, the TGI in experiment [2] is more than 100 µM. `COc1cc2c(cc1OC)C13CCN4CC5CCOC6CC(=O)N2C1C6C5CC43` (stereo not drawn) had a TGI in experiment [2] of more than 100 µM. On the same count and under the same terms, the same measure for `CN(C)CCNC(=O)c1ccc(NC(=O)c2nc([N+](=O)[O-])cn2C)cc1`: more than 100 µM. Take `CCCSS[C@H]1NC(=O)[C@H]1NC(=O)COc1ccccc1`: the TGI in experiment [1] is 31.6 µM. With `CN(Cc1cc(C(C)(C)C)cc(Br)c1O)Cc1cc(C(C)(C)C)cc(Br)c1O`, the TGI in experiment [2] was found to be 15.9 µM.
